Target: GABAA receptor
Test: Steroid inhibition of [35S]-TBPS binding, rat brain cortical membranes
Settings: 3 nM [35S]-TBPS, in the presence of 5 mM GABA
Outline: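 In the presence of […], compounds (DMSO 0.5% final) competed with 3 nM [35S]-TBPS for Sprague-Dawley rat cortical membranes, pH 7.4 phosphate buffer, 90 min, room temperature. Filtration and scintillation counting; specific binding defined by […]; IC50 and maximal inhibition fitted per experiment, averaged as mean ± SEM.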

SMILES: CC[C@@]1(O)CC[C@H]2[C@H](CC[C@@H]3[C@@H]2CC[C@@]2(C)[C@H]3CC[C@@H]2[C@@](C)(O)Cn2cc(C#N)cn2)C1 [Compound 12, 1-((R)-2-((3R,5R,8R,9R,10S,13S,14S,17S)-3-ethyl-3-hydroxy-13-methylhexadecahydro-1H-cyclopenta[a]phenanthren-17-yl)-2-hydroxypropyl)-1H-pyrazole-4-carbonitrile]
- IC50: 100 to 1000 nM

SMILES: CC[C@H]1C[C@H]2[C@H](CC[C@@H]3[C@@H]2CC[C@@]2(C)[C@H]3CC[C@@H]2[C@](C)(O)Cn2cc(C#N)cn2)C[C@]1(C)O [Compound 34, 1-((S)-2-((2S,3S,5R,8R,9R,10S,13S,14S,17S)-2-ethyl-3-hydroxy-3,13-dimethylhexadecahydro-1H-cyclopenta[a]phenanthren-17-yl)-2-hydroxypropyl)-1H-pyrazole-4-carbonitrile]
- IC50: < 100 nM

SMILES: COC[C@@]1(O)CC[C@H]2[C@H](CC[C@@H]3[C@@H]2CC[C@@]2(C)[C@H]3CC[C@@H]2[C@](C)(O)Cn2cc(C#N)cn2)C1 [Compound 29, 1-((S)-2-hydroxy-2-((3R,5R,8R,9R,10S,13S,14S,17S)-3-hydroxy-3-(methoxymethyl)-13-methylhexadecahydro-1H-cyclopenta[a]phenanthren-17-yl)propyl)-1H-pyrazole-4-carbonitrile]
- IC50: < 100 nM

SMILES: C[C@@]1(O)CC[C@H]2[C@H](CC[C@@H]3[C@@H]2CC[C@@]2(C)[C@H]3[C@H](C3CC3)C[C@@H]2[C@@](C)(O)Cn2cc(C#N)cn2)C1 [Compound 46, 1-((R)-2-((3R,5R,8R,9R,10S,13S,14S,15S,17S)-15-cyclopropyl-3-hydroxy-3,13-dimethylhexadecahydro-1H-cyclopenta[a]phenanthren-17-yl)-2-hydroxypropyl)-1H-pyrazole-4-carbonitrile]
- IC50: < 100 nM

SMILES: CCC[C@@]1(O)CC[C@H]2[C@@H](CC[C@@H]3[C@@H]2CC[C@@]2(C)[C@H]3CC[C@@H]2[C@](C)(O)Cn2cc(C#N)cn2)C1 [Compound 9, 1-((S)-2-hydroxy-2-((3R,5S,8R,9R,10S,13S,14S,17S)-3-hydroxy-13-methyl-3-propylhexadecahydro-1H-cyclopenta[a]phenanthren-17-yl)propyl)-1H-pyrazole-4-carbonitrile]
- IC50: 100 to 1000 nM

SMILES: C[C@@H]1C[C@H]2[C@H](CC[C@@H]3[C@@H]2CC[C@@]2(C)[C@H]3CC[C@@H]2[C@@](C)(O)Cn2cc(C#N)cn2)C[C@]1(C)O [Compound 53, 1-((R)-2-hydroxy-2-((2R,3S,5R,8R,9R,10S,13S,14S,17S)-3-hydroxy-2,3,13-trimethylhexadecahydro-1H-cyclopenta[a]phenanthren-17-yl)propyl)-1H-pyrazole-4-carbonitrile]
- IC50: 100 to 1000 nM

SMILES: CO[C@@H]1C[C@H]2[C@H](CC[C@@H]3[C@@H]2CC[C@@]2(C)[C@H]3CC[C@@H]2[C@@](C)(O)Cn2cc(C#N)cn2)C[C@]1(C)O [Compound 61, 1-((R)-2-hydroxy-2-((2R,3S,5R,8R,9R,10S,13S,14S,17S)-3-hydroxy-2-methoxy-3,13-dimethylhexadecahydro-1H-cyclopenta[a]phenanthren-17-yl)propyl)-1H-pyrazole-4-carbonitrile]
- IC50: 100 to 1000 nM

SMILES: COC[C@@]1(O)CC[C@H]2[C@H](CC[C@@H]3[C@@H]2CC[C@]2(C)[C@@H](C(F)(F)Cn4cc(C#N)cn4)CC[C@@H]32)C1 [Compound 38, 1-(2,2-difluoro-2-((3R,5R,8R,9R,10S,13S,14S,17S)-3-hydroxy-3-(methoxymethyl)-13-methylhexadecahydro-1H-cyclopenta[a]phenanthren-17-yl)ethyl)-1H-pyrazole-4-carbonitrile]
- IC50: < 100 nM

SMILES: CCC[C@@]1(O)CC[C@H]2[C@H](CC[C@@H]3[C@@H]2CC[C@@]2(C)[C@H]3CC[C@@H]2[C@](C)(O)Cn2cc(C#N)cn2)C1 [Compound 7, 1-((S)-2-hydroxy-2-((3R,5R,8R,9R,10S,13S,14S,17S)-3-hydroxy-13-methyl-3-propylhexadecahydro-1H-cyclopenta[a]phenanthren-17-yl)propyl)-1H-pyrazole-4-carbonitrile]
- IC50: < 100 nM

SMILES: COC[C@@]1(O)CC[C@H]2[C@H](CC[C@@H]3[C@@H]2CC[C@]2(C)[C@@H](C(C)(Cn4cc(C#N)cn4)OC)CC[C@@H]32)C1 (stereo in doubt) [Compound 32, 1-((R)-2-((3R,5R,8R,9R,10S,13S,14S,17S)-3-hydroxy-3-(methoxymethyl)-13-methylhexadecahydro-1H-cyclopenta[a]phenanthren-17-yl)-2-methoxypropyl)-1H-pyrazole-4-carbonitrile]
- IC50: 100 to 1000 nM

Source: patent US20250236639A1, “NEUROACTIVE STEROIDS AND COMPOSITIONS THEREOF” (Sage Therapeutics, Inc., priority 2019, published 2025)
